Experiment [1] has as its system classical subtype glioblastoma multiform (626T). Briefly: cells. The note with it: Homo sapiens, 72 h. Here is the method:
(§1) Particularly, the cell growth inhibition effect was measured by WST-1 cell proliferation assay [http://www.roche-applied-science.com/PROD_INF/MANUALS/CELL_MAN/apoptosis—087—088.pdf]. The compound of formula 1 was loaded in a 384-well cell culture plate. Three types of glioblastoma multiform cell lines [proneural subtype (559T), mesenchymal subtype (592T), and classical subtype (626T)], normal human astrocytes (NHA), a lung cancer cell line (A549), and a glioblastoma multiform cell line (U87MG) were distributed in the plate at the density of 4.5×10^3 cells/well, and the medium was filled up to make 50 μl per well. At this time, the concentration of the solvent DMSO for the compound of formula 1 was no more than 0.2%. After culturing the cells for 72 hours, 5 mg/ml of WST-1 reagent was added by 5 μl per well, followed by reaction for 3˜4 hours. Then OD450 was measured to investigate the effect of the compound of formula 1 on cell proliferation.

Experiment [2] has as its system glioblastoma multiform cell line (U87MG). The experiment is described as follows: cells. As to the method: as §1
In experiment [3] the test system is GBM #4 glioblastoma multiform patient originated cells. Briefly: Neurosphere formation inhibition, GBM #4. The format is cell-based, human. Also on record: key: S: strong effect; I: intermediate effect; R: rare effect. The note with it: GBM #4, type B (classical), Azathioprine 1 μM, duration 9 day. Here is the method: Particularly, to investigate neurosphere formation, glioblastoma multiform cells were cultured for a certain time and the cells were distributed again in culture vessels, followed by additional culture. Then, the number of newly generated neurospheres was measured. First, the glioblastoma multiform patient originated cells were sub-cultured, which were distributed in a 96-well plate (20, 50, and 200 cells in 50 μl of culture medium/well). […] Then, the compound of formula 1 (azathioprine) and the compound of Comparative Example 1 (Temodal) were added to 50 μl of cell culture medium with the same concentrations as the above once a week, which were then cultured for 7˜23 days. When neurosphere was formed at least 50 μm in the control group not treated with the compound, the number of neurospheres in each well was counted to compare the neurosphere formation before and after the treatment of the compound of formula 1 (azathioprine) and the compound of Comparative Example 1 (Temodal).
The glioblastoma multiform cells used in this experiment were classified into 4 types, which are type A, type B, type C, and type D, according to the gene expression pattern. Methylation of MGMT (O6-me-G methyltransferase), the DNA repair protein, was confirmed in each cell line. […]

The subject of experiment [4] is NCI-H23 Human lung adenocarcinoma. Briefly: Secondary cytotoxicity test, NCI-H23. Type of experiment: cell-based. As to the method:
as §1
(§2) To investigate the cell growth inhibition effect of the compound of formula 1 of the present invention (azathioprine) in many different cell lines, secondary cytotoxicity test was performed with the cell lines listed in Table 5 by the same manner as described in Example 1.

Experiment [5] has as its system MKN45 Human stomach adenocarcinoma. The experiment is described as follows: Secondary cytotoxicity test, MKN45. The format is cell-based. The following applies: MKN-45. Here is the method: as §1, §2
The test system of experiment [6] is classical subtype (626T) glioblastoma multiform cells. The following applies: concentrations starting from 100 μM, culture for 7 days. Here is the method: (§3) Thymidine incorporation assay was performed to investigate the cell growth inhibition effect of the compound of the present invention. Three subtypes of glioblastoma multiform cells [proneural subtype (559T), mesenchymal subtype (592T), classical subtype (626T)] and normal human astrocytes (NHA) were N cultured in a 96-well plate at the density of 1×10^4 cells/well, to which 2 μCi/well of 3H-thymidine was added. Azathioprine was added thereto at different concentrations starting from 100 μM, followed by culture for 7 days. 200 μl/well of scintillation fluid (biofluor) was added thereto and count per minute (cpm) was calculated.

Experiment [7] deals with mesenchymal subtype (592T) glioblastoma multiform cells. The note with it: concentrations starting from 100 μM, culture for 7 days. Here is the method: as §3
Experiment [8] concerns proneural subtype (559T) glioblastoma multiform cells. The following applies: concentrations starting from 100 μM, culture for 7 days. Here is the method: as §3
[9] abbreviates: read-out: Cell Growth Inhibition (% Inhibition).
Setting [10] is: Homo sapiens, U-87 MG, 72 h, read-out: Cell Growth Inhibition (% Inhibition).

Structures are written as SMILES.

The source of these data is US20150141439A1, “PHARMACEUTICAL COMPOSITION FOR THE PREVENTION OR TREATMENT OF BRAIN TUMOR OR TEMODAL RESISTANT GLIOBLASTOMA MULTIFORM COMPRISING AZATHIOPRINE AS AN ACTIVE INGREDIENT” (KOREA RESEARCH INSTITUTE OF CHEMICAL TECHNOLOGY, priority 2012, published 2015).

As to `Cn1cnc([N+](=O)[O-])c1Sc1ncnc2nc[nH]c12` [Azathioprine, 6-(1-methyl-4-nitro-1H-imidazol-5-ylthio)-7H-purine], the GI50 (usually the concentration at which growth is held to half of that of the control) in experiment [1] was 3.1 µM; in experiment [2] (Homo sapiens, U-87 MG, 72 h), over 10 µM. The figures for the inhibition at 0.032 µM in experiment [1] (setting [9]) and in experiment [2] (setting [10]) were 20.2% and 3.2%, respectively. Also, the inhibition (as a rule, the change of the read-out against control, counted positive when it falls) at 0.1 µM in experiment [1] (setting [9]) was 34.9%; in experiment [2] (setting [10]) it was -9.9%. Also, the inhibition at 0.32 µM in experiment [1] (setting [9]) turned out to be 30%; in experiment [2] (setting [10]), 10.5%. Besides, the values for the inhibition at 1 µM in experiment [1] (setting [9]) and in experiment [2] (setting [10]) were 42.5% and 6.5%, respectively. Besides, the results for the inhibition at 3.2 µM in experiment [1] (setting [9]) and in experiment [2] (setting [10]) were 61.8% and 3.2%, respectively. Besides, the inhibition at 10 µM is 76.3% in experiment [1] (setting [9]) and -12.7% in experiment [2] (setting [10]). Besides, the “cancer cell growth inhibition” value in experiment [2] (U87MG, WST-1, up to 10 μM) was “did not inhibit the cancer cell growth”. In experiment [3], the “inhibition of neurosphere formation” value is recorded as “S”. Also, the IC50 (commonly the point on the concentration scale where inhibition reaches its midpoint) is 4.9 µM in experiment [4] and 1.2 µM in experiment [5]. For the same molecule, the “cell growth inhibition effect (3H-thymidine incorporation)” value in experiment [6], in experiment [7] and in experiment [8] was “significant cell growth inhibition effect” throughout.
